The results in this text go back to patent US8889391B1 (Cargill, Incorporated, priority 2006, dated 2014).

Read-outs that look alike come from different tables or passages of the source.

For data set [1], the system named is BAAT (BAAT5-9) in E. coli 11303 Δpta ΔadhE ΔfrdABCD ΔldhA Δpan(C-D) ΔpoxB INT(BAAT5-9/PpmmsB31) carrying pCEC/SapanD. The experiment in a line: microbe, parasite or virus in culture. Conditions: for inhibition at 20000 µM / inhibition at 100000 µM: Escherichia coli. Here is the method: A culture of E. coli 11303 Δpta ΔadhE ΔfrdABCD ΔldhA Δpan(C-D) ΔpoxB INT(BAAT5-9/PpmmsB31) carrying the vector pCEC/SapanD was grown in LB media with chloramphenicol at 30° C. This culture was used to inoculate 20 mL modified Overnight Express media (Novagen) to an initial OD600 of 0.05 in a 125 mL flask. Modification to the media included the replacement of Solution 1 with glucose at a concentration of 0.1% and arabinose at 2%, and addition of 20 uM Ca^2+ pantothenate, 25 ug/mL chloramphenicol, 100 uM pyridoxine-HCl and 1 mM IPTG. […] Glucose biotransformation medium consisted of M9 salts, 100 mM MOPS pH 8, 1% glucose, 500 uM IPTG, and 50 uM pyridoxine-HCl.
For aerobic biotransformations, 900 uL of the resuspended culture was aliquoted to a 14 mL Falcon tube and the volume was brought to 1 mL with water and/or sodium acetate (pH 7). For anaerobic biotransformations, 1.35 mL of the resuspended culture was aliquoted to a 1.8 mL glass vial and the volume was brought to 1.5 mL with water and/or sodium acetate(pH 7). Final concentrations of sodium acetate added were 0, 20 mM, and 100 mM, and biotransformation incubations were at 30° C. with shaking at 225 rpm. […] Culture supernatants were acidified with 0.05 volumes of 90% formic acid, centrifuged, filtered, and analyzed for 3-HP production as described in Example 8.

The target of data set [2] is BAAT-3-HP dehydrogenase system: Streptomyces avermitilis BAAT variant BAAT5-9 (P3H, S24T, D110N, F113L, A133T), SEQ ID NO: 19, coupled with P. putida 3-HP dehydrogenase (PpmmsB31), SEQ ID NO: 27 (Streptomyces avermitilis, UniProt Q82ER2, D110N/F113L/P3H/S24T). The experiment in a line: biochemical. Conditions: pH 8, read-out: reduction of activity of the BAAT-3-HP dehydrogenase system. Here is the method: The effect of acetate on the in vitro biological activity of BAAT enzymes in cell extracts was also measured using a coupled assay in which the malonyl semialdehyde product of the reaction catalyzed by BAAT was reduced by a 3-HP dehydrogenase. An extract of cells carrying the integrated BAAT5-9/PpmmsB31 was made by resuspending cells collected by centrifugation with Bugbuster (EMD/Novagen, Madison Wis.) as described by the manufacturer. […] The progress of the reaction was monitored as the decrease in A340 due to oxidation of the NADH. The effect of acetate or pyruvate was determined by adding up to 20 mM of either compound (as the neutral Na^+ salt).

The subject of another data set is O=CCC(=O)O. The experiment in a line: purified protein, by the assay type. Conditions: other: purified enzyme; NADH is the preferred reductant.
Substrate in data set [3]: O=CCC(=O)O
Nature of the data set: ydfG dehydrogenase kinetics, purified enzyme. Type of data set: biochemical, E. coli. Conditions: other: purified enzyme; NADPH is the only cofactor used; 58.0 °C. As for the experimental part:
The ydfG gene was cloned into the pET28b vector (Novagen, Madison, Wis.) to allow purification and kinetic studies on purified protein. The primers used for this cloning had restriction sites added to allow cloning into NdeI and BamHI sites. […] (SEQ ID NO: 32) and […] (SEQ ID NO: 33). Fragment amplification was performed using Pfu DNA polymerase to minimize amplification errors, and used an annealing temperature of 58° C. A PCR product band of approximately 750 bp was gel-purified, digested with NdeI and BamHI, and ligated, using an NEB Quick Ligation method (New England BioLabs, Waverly Mass.), into pET28B vector that had been digested with the same enzymes. The ligation reaction was transformed into E. coli Electromax™ DH10B™ cells and plated on LB medium containing 25 μg/ml kanamycin. Plasmid DNA from a colony showing the correct insert size was sequenced and shown to be identical to the ydfG sequence from E. coli MG1655.

Substrate in data set [4]: NCCC(=O)O
Nature of the data set: purified protein, by the assay type. It is filed as biochemical, Streptomyces avermitilis. The settings on record: other: pH 8.0, 10 mM alpha-ketoglutarate, 25° C.

Substrate in data set [5]: NCCC(=O)O
Nature of the data set: purified protein, by the assay type. Conditions: other: pH 8.0, 10 mM alpha-ketoglutarate, 25° C.

The mark [6] stands for this setting: read-out: reduction in 3-HP from beta-alanine.
[7] abbreviates: read-out: reduction in 3-HP from glucose.

Regarding `CC(=O)O` [acetate], in data set [1] (setting [6]), the inhibition at 20000 µM was found to be 22% and the inhibition at 100000 µM worked out at 47%. In addition, in data set [1] (setting [7]), the inhibition at 20000 µM is 28% and the inhibition at 100000 µM is 52%. The “reduction in 3-HP” value in data set [1] (anaerobic conditions, acetate added (20 mM and 100 mM)) is on record as 8-29%. Besides, the inhibition at 10000 µM in data set [2] is about 50%. `CC(=O)C(=O)O` [pyruvate]: the inhibition at 10000 µM in data set [2] is about 50%. The term Km denotes the concentration of substrate that gives half-maximal velocity. On to “Pseudomonas aeruginosa 3-HP dehydrogenase (PammsB), SEQ ID NO: 21 (Pseudomonas aeruginosa PAO1)”, for which, in the data set with O=CCC(=O)O, the Michaelis constant (Km) amounted to 4.5 mM.

B1: E. coli ydfG protein, SEQ ID NO: 31 (Escherichia coli K-12) (protein)
chain: MIVLVTGATAGFGECITRRFIQQGHKVIATGRRQERLQELKDELGDNLYIAQLDVRNRAAIEEMLASLPAEWCNIDILVNNAGLALGMEPAHKASVEDWETMIDTNNKGLVYMTRAVLPGMVERNHGHIINIGSTAGSWPYAGGNVYGATKAFVRQFSLNLRTDLHGTAVRVTDIEPGLVGGTEFSNVRFKGDDGKAEKTYQNTVALTPEDVSEAVWWVSTLPAHVNINTLEMMPVTQSYAGLNVHRQ
In the case of B1, the Km in data set [3] is given as 3.7 mM.

B2: Streptomyces avermitilis BAAT variant BAAT3ML (P3H, S24T, F113L, A133T), SEQ ID NO: 17 (Streptomyces avermitilis MA-4680 = NBRC 14893; F113L/P3H/S24T) (protein)
chain: MTHQPNPQVGAAVKAADRAHVFHTWSAQELIDPLAVAGAEGSYFWDYDGRRYLDFTSGLVFTNIGYQHPKVVAAIQEQAASLTTFAPAFAVEARSEAARLIAERTPGDLDKILFTNGGADAIEHAVRMARIHTGRPKVLSAYRSYHGGTQQAVNITGDPRRWASDSASAGVVHFWAPYLYRSRFYAETEQQECERALEHLETTIAFEGPGTIAAIVLETVPGTAGIMVPPPGYLAGVRELCDKYGIVFVLDEVMAGFGRTGEWFAADLFDVTPDLMTFAKGVNSGYVPLGGVAISGKIAETFGKRAYPGGLTYSGHPLACAAAVATINVMAEEGVVENAANLGARVIEPGLRELAERHPSVGEVRGVGMFWALELVKDRETREPLVPYNAAGEANAPMAAFGAAAKANGLWPFINMNRTHVVPPCNVTEAEAKEGLAALDAALSVADEYTV
Consider B2, for which the Michaelis-Menten constant (Km) in data set [4] came out at 21 mM.

B3: Streptomyces avermitilis BAAT variant BAAT3 (S24T, F113L, A133T), SEQ ID NO: 12 (Streptomyces avermitilis MA-4680 = NBRC 14893; F113L/S24T) (protein)
chain: MTPQPNPQVGAAVKAADRAHVFHTWSAQELIDPLAVAGAEGSYFWDYDGRRYLDFTSGLVFTNIGYQHPKVVAAIQEQAASLTTFAPAFAVEARSEAARLIAERTPGDLDKILFTNGGADAIEHAVRMARIHTGRPKVLSAYRSYHGGTQQAVNITGDPRRWASDSASAGVVHFWAPYLYRSRFYAETEQQECERALEHLETTIAFEGPGTIAAIVLETVPGTAGIMVPPPGYLAGVRELCDKYGIVFVLDEVMAGFGRTGEWFAADLFDVTPDLMTFAKGVNSGYVPLGGVAISGKIAETFGKRAYPGGLTYSGHPLACAAAVATINVMAEEGVVENAANLGARVIEPGLRELAERHPSVGEVRGVGMFWALELVKDRETREPLVPYNAAGEANAPMAAFGAAAKANGLWPFINMNRTHVVPPCNVTEAEAKEGLAALDAALSVADEYTV
As for B3, the Km in data set [4] is on record as 14.7 mM.

B4: Streptomyces avermitilis BAAT variant BAAT1 (S24T), SEQ ID NO: 6 (Streptomyces avermitilis MA-4680 = NBRC 14893; S24T) (protein)
chain: MTPQPNPQVGAAVKAADRAHVFHTWSAQELIDPLAVAGAEGSYFWDYDGRRYLDFTSGLVFTNIGYQHPKVVAAIQEQAASLTTFAPAFAVEARSEAARLIAERTPGDLDKIFFTNGGADAIEHAVRMARIHAGRPKVLSAYRSYHGGTQQAVNITGDPRRWASDSASAGVVHFWAPYLYRSRFYAETEQQECERALEHLETTIAFEGPGTIAAIVLETVPGTAGIMVPPPGYLAGVRELCDKYGIVFVLDEVMAGFGRTGEWFAADLFDVTPDLMTFAKGVNSGYVPLGGVAISGKIAETFGKRAYPGGLTYSGHPLACAAAVATINVMAEEGVVENAANLGARVIEPGLRELAERHPSVGEVRGVGMFWALELVKDRETREPLVPYNAAGEANAPMAAFGAAAKANGLWPFINMNRTHVVPPCNVTEAEAKEGLAALDAALSVADEYTV
For B4, the Km in data set [4] was 7.3 mM.

B5: Streptomyces avermitilis BAAT variant BAAT5-9 (P3H, S24T, D110N, F113L, A133T), SEQ ID NO: 19 (Streptomyces avermitilis MA-4680 = NBRC 14893; … (protein)
chain: MTHQPNPQVGAAVKAADRAHVFHTWSAQELIDPLAVAGAEGSYFWDYDGRRYLDFTSGLVFTNIGYQHPKVVAAIQEQAASLTTFAPAFAVEARSEAARLIAERTPGDLNKILFTNGGADAIEHAVRMARIHTGRPKVLSAYRSYHGGTQQAVNITGDPRRWASDSASAGVVHFWAPYLYRSRFYAETEQQECERALEHLETTIAFEGPGTIAAIVLETVPGTAGIMVPPPGYLAGVRELCDKYGIVFVLDEVMAGFGRTGEWFAADLFDVTPDLMTFAKGVNSGYVPLGGVAISGKIAETFGKRAYPGGLTYSGHPLACAAAVATINVMAEEGVVENAANLGARVIEPGLRELAERHPSVGEVRGVGMFWALELVKDRETREPLVPYNAAGEANAPMAAFGAAAKANGLWPFINMNRTHVVPPCNVTEAEAKEGLAALDAALSVADEYTV
Consider B5, for which the Km in data set [4] was determined as 25 mM.

B6: Streptomyces avermitilis beta-alanine/alpha-ketoglutarate aminotransferase (BAAT), wild type, SEQ ID NO: 4 (Streptomyces avermitilis MA-4680 = NBRC 14893) (protein)
chain: MTPQPNPQVGAAVKAADRAHVFHSWSAQELIDPLAVAGAEGSYFWDYDGRRYLDFTSGLVFTNIGYQHPKVVAAIQEQAASLTTFAPAFAVEARSEAARLIAERTPGDLDKIFFTNGGADAIEHAVRMARIHAGRPKVLSAYRSYHGGTQQAVNITGDPRRWASDSASAGVVHFWAPYLYRSRFYAETEQQECERALEHLETTIAFEGPGTIAAIVLETVPGTAGIMVPPPGYLAGVRELCDKYGIVFVLDEVMAGFGRTGEWFAADLFDVTPDLMTFAKGVNSGYVPLGGVAISGKIAETFGKRAYPGGLTYSGHPLACAAAVATINVMAEEGVVENAANLGARVIEPGLRELAERHPSVGEVRGVGMFWALELVKDRETREPLVPYNAAGEANAPMAAFGAAAKANGLWPFINMNRTHVVPPCNVTEAEAKEGLAALDAALSVADEYTV
With B6, in data set [5], the Km is recorded as 2.5 mM.
